Results: patent publication US20160201063A1, “EPIGENETIC REGULATORS OF FRATAXIN” (RANA THERAPEUTICS, INC., priority 2013, published 2016)

How the values were obtained:
FXN mRNA [1] = test: Screen of library of eighty epigenetic inhibitors in GM03816 FRDA diseased fibroblasts, FXN mRNA fold change; type: cell-based, human; details: for fold induction at 1 µM / fold induction at 5 µM: Homo sapiens, Fibroblast, 72 h; for fold induction at 1 µM: read-out: 3816 1 uM (FXN mRNA fold change); for fold induction at 5 µM: read-out: 3816 5 uM (FXN mRNA fold change)
Description: FXN RNA levels are indicated on the y-axis and the inhibitors used at both 1 μM and 5 μM are shown on the x-axis.
A screen of a library of eighty epigenetic inhibitors (Cayman Chemical) was performed in GM03816 FRDA fibroblasts to identify epigenetic regulators that upregulate FXN expression.

FXN mRNA [2] = test: Screen of epigenetic inhibitors in GM0321 normal fibroblasts, FXN RNA levels; type: cell-based, human; details: for fold induction at 1 µM / fold induction at 5 µM: Homo sapiens, Fibroblast, 72 h; for fold induction at 1 µM: read-out: FXN mRNA fold change, 321B 1 uM; for fold induction at 5 µM: read-out: FXN mRNA fold change, 321B 5 uM
[3] = GM03816 FRDA diseased fibroblasts, 1 uM inhibitor, 3 days of treatment
[4] = GM03816 FRDA diseased fibroblasts, 5 uM inhibitor, 3 days of treatment
[5] = GM0321 normal fibroblasts, 1 uM inhibitor, 3 days of treatment
[6] = GM0321 normal fibroblasts, 5 uM inhibitor, 3 days of treatment

| Compound | 3816 1 uM (FXN mRNA fold change) (FXN mRNA [1]; [3]) | 3816 5 uM (FXN mRNA fold change) (FXN mRNA [1]; [4]) | FXN mRNA fold change, 321B 1 uM (FXN mRNA [2]; [5]) | FXN mRNA fold change, 321B 5 uM (FXN mRNA [2]; [6]) | also measured |
| --- | --- | --- | --- | --- | --- |
| Oc1cc(O)cc(/C=C/c2ccc(O)c(O)c2)c1 [Picetannol] | 0.7867 | 0.5435 | 0.5008 | 0.538 |  |
| CCCC(=O)[O-].[Na+] [Sodium Butyrate] |  |  |  |  | fold induction at 1 µM (FXN mRNA [1]): 1.03; fold induction at 5 µM (FXN mRNA [1]): 1.16; fold induction at 1 µM (FXN mRNA [2]): 1.06; fold induction at 5 µM (FXN mRNA [2]): 0.707 |
| O=C(c1ccc(C(=O)N2CCC(N3CCCC3)CC2)c(Nc2ccccc2)c1)N1CCC(N2CCCC2)CC1 [UNC1215] | 0.6911 | 0.8743 |  |  |  |
| NC(=O)[C@H](CCCN=C(N)CCl)NC(=O)c1ccccc1 [Cl-Amidine] | 1.153 | 0.9028 | 0.9432 | 0.9931 |  |
| Oxamflatin | 0.3506 | 0.108 | 0.5612 | 0.2391 |  |
| NC(=O)[C@H](CCCN=C(N)CF)NC(=O)c1ccccc1 [F-Amidine] | 0.7818 | 0.6484 | 0.9152 | 0.9697 |  |
| N#C/C(=C\c1ccc(-c2cc(Cl)ccc2Cl)o1)C(=O)Nc1cccc2ncccc12 [AGK2] | 1.206 | 1.101 | 1.115 | 1.053 |  |
| O=C(/C=C/c1cccc(C(=O)NO)c1)NO [CBHA] | 0.4678 | 0.1327 | 0.7208 | 0.4875 |  |
| CC(C(=O)Nc1cccc(/N=C/c2c(O)ccc3ccccc23)c1)c1ccccc1 (stereo not shown) [Salermide] |  |  |  |  | fold induction at 1 µM (FXN mRNA [1]; [3]): 1.16; fold induction at 5 µM (FXN mRNA [1]; [4]): 0.996; fold induction at 1 µM (FXN mRNA [2]; [5]): 1.06; fold induction at 5 µM (FXN mRNA [2]; [6]): 0.815 |
| Nc1ccccc1NC(=O)CCCCCCC(=O)Nc1ccccc1 [CAY10433] | 0.8309 | 0.8827 | 1.03 | 0.7782 |  |
| N=C1NC(=O)/C(=C/c2ccc(O)cc2)S1 [Mirin] |  |  |  |  | fold induction at 1 µM (FXN mRNA [1]): 1.06; fold induction at 5 µM (FXN mRNA [1]): 0.679; fold induction at 1 µM (FXN mRNA [2]): 1.08; fold induction at 5 µM (FXN mRNA [2]): 1.31 |
| CC(C)[C@H](C(=O)Nc1ccc(C(=O)NO)cc1)c1ccccc1 [(S)-HDAC-42] | 0.2419 | 0.1894 |  | 0.6941 |  |
| CCOC(=O)c1ccnc(C(=O)OCC)c1 [2,4-DPD] | 1.179 | 0.9456 | 0.877 | 0.7372 |  |
| O=C(O)C(Cc1c[nH]c2ccccc12)N1C(=O)c2ccccc2C1=O (stereo not shown) [RG-108] | 1.001 | 0.8966 |  | 0.6222 |  |
| CCOC(=O)CCNc1cc(N2CCc3ccccc3CC2)nc(-c2ccccn2)n1.Cl [GSK-J4 (hydrochloride)] | 0.927 | 0.8762 | 1.002 | 0.8744 |  |
| COCCCn1c(N)c(C(=O)NC2CCCC2)c2nc3ccccc3nc21 [CAY10591] | 1.311 | 1.377 | 0.9828 | 1.437 |  |
| CC(NC(=O)c1ccccc1/N=C/c1c(O)ccc2ccccc12)c1ccccc1 (stereo not shown) [Sirtinol] |  |  |  |  | fold induction at 1 µM (FXN mRNA [1]; [3]): 1.06; fold induction at 5 µM (FXN mRNA [1]; [4]): 0.92; fold induction at 1 µM (FXN mRNA [2]; [5]): 0.81; fold induction at 5 µM (FXN mRNA [2]; [6]): 1.02 |

| Compound | 3816 1 uM (FXN mRNA fold change) (FXN mRNA [1]; [3]) | 3816 5 uM (FXN mRNA fold change) (FXN mRNA [1]; [4]) | FXN mRNA fold change, 321B 1 uM (FXN mRNA [2]; [5]) | FXN mRNA fold change, 321B 5 uM (FXN mRNA [2]; [6]) | also measured |
| --- | --- | --- | --- | --- | --- |
| CCCCc1nc2cc(/C=C/C(=O)NO)ccc2n1CCN(CC)CC [SB 939] |  |  |  |  | fold induction at 1 µM (FXN mRNA [1]; [3]): 0.298; fold induction at 5 µM (FXN mRNA [1]; [4]): 0.315; fold induction at 1 µM (FXN mRNA [2]; [5]): 0.435; fold induction at 5 µM (FXN mRNA [2]; [6]): 0.465 |
| O=C(CCCCCCC(=O)Nc1ccccc1)NO [SAHA] | 0.4857 | 0.0916 | 0.4256 | 0.1923 |  |
| Nc1ncnc2c1ncn2[C@@H]1O[C@H](C[C@@H](N)CC[C@H](N)C(=O)O)[C@@H](O)[C@H]1O [Sinefungin, reference compound] |  |  |  |  | fold induction at 1 µM (FXN mRNA [1]; [3]): 0.895; fold induction at 5 µM (FXN mRNA [1]; [4]): 0.862; fold induction at 1 µM (FXN mRNA [2]; [5]): 0.551; fold induction at 5 µM (FXN mRNA [2]; [6]): 0.821 |
| Nc1ccccc1NC(=O)c1ccc(CNC(=O)OCc2cccnc2)cc1 [MS-275] | 0.2266 | 0.2333 |  | 0.2713 |  |
| O=C(O)c1ccnc(C(=O)O)c1 [2,4-Pyridinedicarboxylic Acid] |  |  |  |  | fold induction at 1 µM (FXN mRNA [1]; [3]): 0.885; fold induction at 5 µM (FXN mRNA [1]; [4]): 0.888; fold induction at 1 µM (FXN mRNA [2]; [5]): 0.458; fold induction at 5 µM (FXN mRNA [2]; [6]): 0.645 |
| Oc1cc(O)c2cc(O)c(-c3cc(O)c(O)c(O)c3)[o+]c2c1 [Delphinidin chloride] |  |  |  |  | fold induction at 1 µM (FXN mRNA [1]; [3]): 0.954; fold induction at 5 µM (FXN mRNA [1]; [4]): 0.885; fold induction at 1 µM (FXN mRNA [2]; [5]): 1.09; fold induction at 5 µM (FXN mRNA [2]; [6]): 1.04 |
| Nc1nc(OCc2cc(Br)cs2)c2[nH]cnc2n1 [Lomeguatrib] |  |  |  |  | fold induction at 1 µM (FXN mRNA [2]; [5]): 1.05; fold induction at 5 µM (FXN mRNA [2]; [6]): 1.28 |
| O=C(O)c1cccc2ccccc12 [1-Naphthoic Acid] |  |  |  |  | fold induction at 1 µM (FXN mRNA [1]; [3]): 1.05; fold induction at 5 µM (FXN mRNA [1]; [4]): 0.869; fold induction at 1 µM (FXN mRNA [2]; [5]): 0.819; fold induction at 5 µM (FXN mRNA [2]; [6]): 0.72 |
| CC(C)(C)OC(=O)Nc1ccc(-c2cc(C(=O)NCCCCCCC(=O)NO)no2)cc1 [CAY10603] | 0.5205 | 0.07004 | 0.3592 |  |  |
| COc1cc2c(NC3CCN(C(C)C)CC3)nc(C3CCCCC3)nc2cc1OCCCN1CCCC1 [UNC0638, 2-Cyclohexyl-6-methoxy-N-[1-(1-methylethyl)-4-piperidinyl]-7-[3-(1-pyrrolidinyl)propoxy]-4-quinazolinamine, reference compound] |  |  |  |  | fold induction at 1 µM (FXN mRNA [1]; [3]): 1.27; fold induction at 5 µM (FXN mRNA [1]; [4]): 1.17; fold induction at 1 µM (FXN mRNA [2]; [5]): 1.09; fold induction at 5 µM (FXN mRNA [2]; [6]): 1.02 |
| O=C(CCCCCCC(=O)Nc1ccc(I)cc1)NO [Oligo 4-iodo-SAHA] | 0.6878 | 0.1302 | 0.668 | 0.5901 |  |
| Nc1nccc2c1ncn2C1C=C(CO)C(O)C1O (stereo not shown) [3-Deazaneplanocin A] | 0.1514 | 0.2102 | 0.2641 | 0.1265 |  |
| Cc1ccc(NC(=O)CCCCCC(=O)Nc2ccccc2N)cc1 [Pimelic Diphenylamide 106] | 0.7457 | 0.4858 | 0.694 | 0.2094 |  |
| CN(C)NC(=O)CCC(=O)O [Daminozide] |  |  |  |  | fold induction at 1 µM (FXN mRNA [1]): 0.824; fold induction at 5 µM (FXN mRNA [1]): 0.881; fold induction at 1 µM (FXN mRNA [2]): 1.04; fold induction at 5 µM (FXN mRNA [2]): 0.898 |
| Nc1ncn([C@H]2C[C@H](O)[C@@H](CO)O2)c(=O)n1 [Decitabine] |  |  |  |  | fold induction at 1 µM (FXN mRNA [2]; [5]): 1.15; fold induction at 5 µM (FXN mRNA [2]; [6]): 1.53 |
| CN(C)CCCCC(=O)Nc1ccc(NC(=S)NC(=O)c2ccc(C(C)(C)C)cc2)cc1 [Tenovin-6] |  |  | 1.23 | 1.282 |  |
| CC(=O)Nc1ccc(NC(=S)NC(=O)c2ccc(C(C)(C)C)cc2)cc1 [tenovin-1] |  |  | 1.444 |  |  |
